# Structures can show the parent of a compound that is named as a salt.
# Molecular target: T1, T7 RNA polymerase (Escherichia phage T7, UniProt P00573)
# T1 construct: purchased New England Biolabs
# Test: In vitro transcription (IVT) with T7 RNA polymerase, 35DNA_A7 template
# Assay type: biochemical
# Details: 7.5 mM NTPs, 37 °C, 16 h, 35-mer RNA with seven modifications
# Description: A^QTP was then used as a substrate for the T7 RNA polymerase in the in vitro transcription (IVT) experiments.[30] We used 35DNA_A7 DNA template encoding for 35-mer RNA containing seven A^Q modifications (Table 4). We used the T7 High Yield RNA Synthesis Kit with a high concentration of NTPs (7.5 mM each) but without any further additives. The reaction time at 37 °C was 16 h. The positive control experiment was performed with all four natural NTPs giving nonmodified transcript 35RNA_A7 (Figure 2, lane 2). The negative control contained only the natural CTP, GTP, and UTP in the absence of ATP (Figure 2, lane 3). The real IVT experiment was performed with A^QTP and three natural NTPs (Figure 2, lane 4). The transcription products were visualized by denaturing 20% denaturing PAGE (Figure 2) and characterized by LC–MS (see Figures S1 and S2 in the SI). […]
# Aliquots of the first three reactions (50 ng) were separated by denaturating PAGE (20%) with urea at 23 mV for 1 h and visualized by fluorescence imaging.
# Aliquots of the positive control (35RNA_A7) and the modified RNA (35RNA_A^Q7) were analyzed by UPLC-ESI-MS confirming the full transcription without any misincorporation (see Figures S1 and S2 in Supporting Information).
# T1 sequence (P00573 whole entry): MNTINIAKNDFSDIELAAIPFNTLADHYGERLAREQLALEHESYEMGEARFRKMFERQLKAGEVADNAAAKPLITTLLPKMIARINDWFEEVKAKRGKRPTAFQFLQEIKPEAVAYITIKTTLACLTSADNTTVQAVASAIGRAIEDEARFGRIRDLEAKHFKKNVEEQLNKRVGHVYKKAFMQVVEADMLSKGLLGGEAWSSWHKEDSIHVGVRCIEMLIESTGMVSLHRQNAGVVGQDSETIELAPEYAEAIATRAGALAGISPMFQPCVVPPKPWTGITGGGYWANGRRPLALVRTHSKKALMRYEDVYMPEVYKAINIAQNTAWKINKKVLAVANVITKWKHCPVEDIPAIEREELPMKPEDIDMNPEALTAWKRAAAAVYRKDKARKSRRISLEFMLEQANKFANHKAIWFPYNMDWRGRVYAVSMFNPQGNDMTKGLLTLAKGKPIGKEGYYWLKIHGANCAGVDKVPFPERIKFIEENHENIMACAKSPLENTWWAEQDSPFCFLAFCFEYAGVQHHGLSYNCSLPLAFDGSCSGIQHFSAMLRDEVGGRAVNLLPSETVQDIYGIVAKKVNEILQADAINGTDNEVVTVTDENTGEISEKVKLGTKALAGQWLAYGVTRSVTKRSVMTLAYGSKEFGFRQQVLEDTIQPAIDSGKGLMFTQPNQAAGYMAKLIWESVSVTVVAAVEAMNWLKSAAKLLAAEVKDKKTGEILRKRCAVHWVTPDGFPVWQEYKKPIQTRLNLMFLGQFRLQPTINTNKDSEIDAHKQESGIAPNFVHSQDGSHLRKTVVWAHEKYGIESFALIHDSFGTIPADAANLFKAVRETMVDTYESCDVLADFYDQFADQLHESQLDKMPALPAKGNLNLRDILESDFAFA
structure (smiles),measurement,value
"Nc1ncnc2c1c1c3cccnc3ccc1n2[C@@H]1O[C@H](COP(=O)(O)OP(=O)(O)OP(=O)(O)O)[C@@H](O)[C@H]1O [A^QTP, 11-Amino-7-(β-D-ribofuranosyl)pyrimido[5′,4′:4,5]pyrrolo[3,2-f]quinoline 5′-O-Triphosphate Bistriethylammonium Salt]",substrate activity for T7 RNA polymerase in in vitro transcription (in words),moderately efficient substrate

# Reference: article PMC11080019, “Synthesis and Biological Profiling of Quinolino-Fused 7-Deazapurine Nucleosides” (ACS Omega, 2024)
